Results published in patent US8568714B2, “Lys K endolysin is synergistic with lysostaphin against MRSA” (priority 2008, dated 2013).
Values joined by “and” are separate entries in the source; they are usually repeats but may differ in a detail not shown here. Equal values may be shown once. Read-outs that look alike come from different tables or passages of the source.

Columns and labels:
MRSA USA300 = assay: Modified checkerboard synergy assay; assay type: cell-based, Staphylococcus aureus
Protocol: Modified checkerboard assay experiments were performed according to Graham and Coote, supra. S. aureus 305 or MRSA USA300 cells at 1×10^6 CFU/ml were prepared as for the MIC assay, and added to wells containing varying concentrations of both LysK and lysostaphin diluted in TSB. The amount of buffer in each well was adjusted to maintain the same final concentration of storage buffer (5%) and corrected with 2×TSB to maintain 1×TSB in all wells. The plate was incubated at 37° C. for 20 h, and then analyzed for clear vs. turbid wells. The Fractional Inhibitory Concentration (FIC) is calculated as the MIC of the antimicrobial in combination divided by the MIC of the antimicrobial acting alone.
To determine if these proteins could act synergistically, both LysK and lysostaphin were tested in a checkerboard assay with various concentrations of each to determine the minimal concentration of each in combination, that could inhibit growth of the MRSA USA300 (FIG. 6). The last row and column on the 96 well microtiter plate replicate the MIC determinations for lysostaphin and LysK, respectively, with nearly identical results obtained for the MIC in this assay, as in FIG. 5. […] It is apparent that the inhibition of growth when the two were added simultaneously was greater than the expected additive effect of each alone. The ΣFIC was 0.45+/−0.07 (three independent experiments), indicating strong synergistic activity (Hall et al., supra), including one assay with S. aureus 305 (data not shown).

MRSA strain USA300 = assay: Microdilution broth MIC determination; assay type: cell-based, Staphylococcus aureus; details: MRSA USA300, TSB, 37° C., 20 h
Protocol: (§1) A classical microdilution broth method for determination of the Minimal Inhibitory Concentration (MIC) was used (Jones et al. 1985. In Manual of Clinical Microbiology, Balows et al. (Eds.), American Society for Microbiology, Washington D.C., pages 972-977). Briefly, logarithmic-phase bacteria were cultivated in tryptic soy broth and adjusted in broth to a concentration of 1×10^6 CFU/ml. Sterile microtiter plates containing 100 μl of either LysK or lysostaphin diluted in TSB are inoculated with 100 μl of the bacterial suspension to yield 5×10^5 CFU/ml. The plate is incubated at 37° C. for 20 h, at which point the plate is analyzed for clear vs. turbid wells. Each MIC assay represents at least two identical determinations per experiment.
MIC determinations for MRSA strain USA300 by lysostaphin and C-His-LysK, were performed in a 96 well microtiter plate. (FIG. 5).

S. aureus strain 305 = assay: MIC determination on S. aureus strain 305; assay type: cell-based; details: Staphylococcus aureus
Protocol: as §1

Compound	concentration of each in combination that inhibits growth (MRSA USA300; cleared well: lysostaphin 0.018 with LysK 11.43)	concentration of each in combination that inhibits growth (MRSA USA300; cleared well: lysostaphin 0.027 with LysK 5.71)	concentration in combination as % of each agent's MIC (MRSA USA300; second cleared-well condition)	MIC (MRSA strain USA300)	MIC (MRSA strain USA300; listed as Lysostaphin)	MIC (S. aureus strain 305; read-out: MIC)	MIC (S. aureus strain 305; translated from μg/ml, read-out: MIC on a molar basis)
lysostaphin: recombinant non-tagged mature 246 amino acid anti-staphylococcal bacteriocin of S. simulans, Sigma-Aldrich L0761	0.018 µg/mL	0.027 µg/mL	16% and < 16%	0.096 µg/mL	0.097 µg/mL and 0.096 ± 0.018 µg/mL		
CC1(C)S[C@@H]2[C@H](NC(=O)[C@H](N)c3ccccc3)C(=O)N2[C@H]1C(=O)O [Ampicillin]						~0.4 µg/mL	~1 µM
